Experimental data: patent US9422262B2, “Compounds and methods for treating diseases mediated by protease activated receptors” (The Broad Institute, Inc., priority 2010, dated 2016)

System: not listed separately
Test: Stability in mouse plasma
Format: in vitro ADME
Conditions: not given
Description: (§1) Since there are also situations in which longer term anticoagulation is desired, we performed further studies in the thrombus formation model to assess analogs of compound 1 that may have a more long-lived effect. […] This instability in mouse plasma may have contributed to its short half-life of efficacy in vivo.
With CC(C)CC(=O)Nc1cccc(NC(=O)c2ccccc2Br)c1 [2-bromo-N-(3-(3-methylbutanamido)phenyl)benzamide] the “remaining after 5 hour incubation in mouse plasma” value was 64.6%.

Target: T1, PAR1 (Homo sapiens, UniProt P25116)
T1 sequence (P25116 22-425): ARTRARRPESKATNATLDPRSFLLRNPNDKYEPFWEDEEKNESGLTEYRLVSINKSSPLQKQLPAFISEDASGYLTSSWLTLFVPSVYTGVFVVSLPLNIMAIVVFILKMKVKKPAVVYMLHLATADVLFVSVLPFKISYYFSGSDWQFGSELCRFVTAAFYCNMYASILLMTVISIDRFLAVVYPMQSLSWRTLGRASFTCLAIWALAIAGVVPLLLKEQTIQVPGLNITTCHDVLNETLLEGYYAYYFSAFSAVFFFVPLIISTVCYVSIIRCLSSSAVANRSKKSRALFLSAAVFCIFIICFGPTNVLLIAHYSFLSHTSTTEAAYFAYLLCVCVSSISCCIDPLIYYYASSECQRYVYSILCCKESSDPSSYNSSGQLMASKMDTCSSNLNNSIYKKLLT
Test: PAR1-mediated platelet aggregation and shape change
Format: cell-based
Parameters: endogenous in cells; host or cells: platelets (platelet-rich plasma; washed platelets from individual donors)
Conditions: FIG. 3A
Description: (§2) This pattern of inhibition is consistent with that of an allosteric inhibitor. […] This observation raised the possibility that compound 1 blocks PAR1 signaling through Gαq (which mediates platelet aggregation downstream of PAR1), but not Gα12/13 (which mediates shape change downstream of PAR1). A previously identified PAR1 inhibitor, 3,5-difluoro aminoisoxazole (3,5-DFAI), inhibited both shape change and aggregation. Shape change that occurred in the presence of compound 1 was blocked by the Rho kinase inhibitor Y27632, confirming participation of Rho kinase downstream of Gα12/13 in compound-1-resistance shape change (FIG. 3A). […] PAR1-mediated decrease in TER in these cells is dependent on Gα12. […] In contrast, 3,5-DFAI inhibited SFLLRN-mediated decrease in TER (FIG. 3B) and compound 1 inhibited Gαq-mediated Ca^2+ flux in these MDCK cells (FIG. 3C).
With Nc1c(F)noc1F [3,5-DFAI, 3,5-difluoro aminoisoxazole] the PAR1-mediated platelet aggregation was “inhibited” and the “PAR1-mediated platelet shape change” value was “inhibited”.

Same assay, conditions: in the presence of compound 1; FIG. 3A
With C[C@@H](N)[C@H]1CC[C@H](C(=O)Nc2ccncc2)CC1 [Compound Y27632] the “shape change that occurred in the presence of compound 1” value was “blocked”.

Target: T2, Par1 (thrombin) receptor (Homo sapiens, UniProt P25116)
T2 construct: endogenous in cells; host or cells: platelets (platelet-rich plasma; washed platelets from individual donors)
T2 sequence (P25116 22-425): T1 sequence (P25116 22-425)
Test: SFLLRN-mediated granule secretion, platelet-rich plasma, luciferin-luciferase ATP readout (primary assay)
Format: cell-based
Conditions: Table D; read-out: Activity (measured IC50 category)
Method: The compounds were tested in two independent IC50 determination experiments using the primary assay measuring SFLLRN-mediated granule secretion. For this assay, platelet-rich plasma is treated with putative inhibitors prior to activation by the SFLLRN peptide, which targets the Par1 (thrombin) receptor. Upon activation, platelets secrete dense granules, which are concentrated with ATP. Platelet activation and possible inhibition are monitored by a luciferin-luciferase assay (CellTiter-Glo without lysis reagent) to measure the ATP secreted from activated platelets. Luminescence measurements are made using a plate reader (Envision, PerkinElmer) capable of detecting luminescence.
CCC(=O)Nc1cccc(NC(=O)c2ccccc2Br)c1 showed an IC50 of 1 to 5 µM.
In the case of O=C(Nc1ccccc1)c1ccccc1Br, the IC50 is reported as 1 to 5 µM.
CC(=O)Nc1cccc(NC(=O)c2ccccc2Cl)c1 showed an IC50 of over 10 µM.
Work on CC(=O)Nc1ccc(NC(=O)c2ccccc2Br)cc1 yielded an IC50 of over 10 µM.
CCCC(=O)Nc1cccc(NC(=O)c2ccc(C(F)(F)F)cc2)c1 showed an IC50 of over 10 µM.
CCCC(=O)Nc1cccc(NC(=O)c2ccc(OC)cc2)c1 gave an IC50 of over 10 µM.
Molecule CCCC(=O)Nc1cccc(NC(=O)c2ccc(S(C)(=O)=O)cc2)c1 has an IC50 of over 10 µM.
CCCC(=O)Nc1cccc(NC(=O)c2ccccc2C)c1 gave an IC50 of 0.001 to 1 µM.
With CCCC(=O)Nc1cccc(NC(=O)c2ccccc2F)c1 the IC50 was 0.001 to 1 µM.
With CCCC(=O)Nc1cccc(NC(=O)c2ccccc2Cl)c1 the IC50 was 1 to 5 µM.
Molecule CCCC(=O)Nc1cccc(NC(=O)c2cccnc2)c1 has an IC50 of over 10 µM.
Molecule CCCC(=O)Nc1cccc(NC(=O)c2cnc3ccccc3c2)c1 has an IC50 of over 10 µM.
CCCC(=O)Nc1cccc(NC(=O)c2ccco2)c1 gave an IC50 of over 10 µM.
In the case of CCCC(=O)Nc1cccc(NC(=O)c2ccc(C)cc2)c1, the IC50 is reported as over 10 µM.
Work on CCCC(=O)Nc1cccc(NC(=O)c2cccc(S(C)(=O)=O)c2)c1 yielded an IC50 of over 10 µM.
Work on O=C(Nc1cccc(NC(=O)C2CCCC2)c1)c1ccccc1Br yielded an IC50 of 0.001 to 1 µM.
With O=C(Nc1cccc(NC(=O)c2ccccc2Br)c1)c1ccccc1 the IC50 was over 10 µM.
In the case of CCCC(=O)Nc1ccnc(NC(=O)c2ccccc2Br)c1, the IC50 is reported as over 10 µM.
O=C(Nc1cc(NC(=O)C2CCCC2)ccn1)c1ccccc1Br gave an IC50 of over 10 µM.
For O=C(Nc1ccnc(NC(=O)c2ccccc2Br)c1)c1ccccc1, the IC50 was over 10 µM.
Work on CCCC(=O)Nc1cccc(N(C)C(=O)c2ccccc2Br)c1 yielded an IC50 of over 10 µM.
For CN(C(=O)c1ccccc1Br)c1cccc(NC(=O)C2CCCC2)c1, the IC50 was over 10 µM.
CCCC(=O)Nc1ccc(NC(=O)c2ccccc2Br)cc1 showed an IC50 of over 10 µM.
In the case of CCCC(=O)Nc1cccc(NC(=O)c2ccccc2C(F)(F)F)c1, the IC50 is reported as 1 to 5 µM.
With CCCC(=O)Nc1cccc(NC(=O)c2ccccc2OC(F)(F)F)c1 the IC50 was 0.001 to 1 µM.
With CCCC(=O)Nc1cccc(NC(=O)c2ccccc2C(=O)N(C)C)c1 the IC50 was over 10 µM.
For CCCC(=O)Nc1cccc(NC(=O)c2ccccc2-c2ccccc2)c1, the IC50 was over 10 µM.
Molecule CCCC(=O)Nc1cccc(NC(=O)c2ccccc2CC)c1 has an IC50 of 0.001 to 1 µM.
Molecule CCCC(=O)Nc1cccc(NC(=O)c2c(C)cccc2C)c1 has an IC50 of 1 to 5 µM.
With CCCC(=O)N(C)c1cccc(NC(=O)c2ccccc2Br)c1 the IC50 was over 10 µM.
Work on CCOC(=O)Nc1cccc(NC(=O)c2ccccc2Br)c1 yielded an IC50 of 1 to 5 µM.
Cc1ccccc1C(=O)Nc1cccc(NC(=O)CC(C)C)c1 gave an IC50 of 1 to 5 µM.
Molecule CCCC(=O)Nc1ccc(Cl)c(NC(=O)c2ccccc2C)c1 has an IC50 of over 10 µM.
For CCCC(=O)Nc1ccc(Cl)c(NC(=O)c2ccccc2Br)c1, the IC50 was over 10 µM.
CCC(=O)Nc1cc(NC(=O)c2ccccc2C)ccc1C showed an IC50 of over 10 µM.
In the case of CCCNC(=O)c1cccc(NC(=O)c2ccccc2Cl)c1, the IC50 is reported as 1 to 5 µM.
Molecule CCCCNc1cccc(NC(=O)c2ccccc2Br)c1 has an IC50 of 0.001 to 1 µM.
Work on CCCC(=O)Nc1cccc(NCc2ccccc2Br)c1 yielded an IC50 of over 10 µM.
In the case of CCCC(=O)Nc1cccc(NC(=O)c2ccccc2S(C)(=O)=O)c1, the IC50 is reported as over 10 µM.
CCCC(=O)Nc1cccc(NC(=O)c2cc(C)ccc2Br)c1 showed an IC50 of 0.001 to 1 µM.
CCCC(=O)Nc1cccc(NC(=O)c2ccc(F)cc2Br)c1 gave an IC50 of 0.001 to 1 µM.
Molecule CCCC(=O)Nc1cccc(NC(=O)c2cc(F)ccc2Br)c1 has an IC50 of 0.001 to 1 µM.
Work on CCCC(=O)Nc1cccc(NC(=O)c2cc(Cl)ccc2Br)c1 yielded an IC50 of 0.001 to 1 µM.
Work on CCC(C)(C)C(=O)Nc1cccc(NC(=O)c2ccccc2Br)c1 yielded an IC50 of over 10 µM.
CCCC(=O)Nc1cccc(NC(=O)c2cccc(Cl)c2Cl)c1 showed an IC50 of 1 to 5 µM.
CCCC(=O)Nc1cccc(NC(=O)c2c(Cl)cccc2Br)c1 gave an IC50 of 1 to 5 µM.
CCCC(=O)Nc1cccc(NC(=O)c2ccccc2Br)c1 [drawing 135] showed an IC50 of 0.001 to 1 µM.
CC(C)CC(=O)Nc1cccc(NC(=O)c2ccccc2Br)c1 [drawing 174] showed an IC50 of 0.001 to 1 µM.

System: thrombus formation
Test: Thrombus formation following laser-induced injury of the cremaster arteriole in mice
Format: in vivo
Conditions: single infusion of 5 mg/kg, FIG. 5A
Description: PAR1 is the thrombin receptor on human platelets and serves an important function in mediating thrombus formation. We tested compound 1 to determine whether it inhibited thrombus formation following laser-induced injury of the cremaster arteriole in mice. The dominant PAR receptor on mouse platelets is PAR4. However, since compound 1 acts at a non-orthosteric site and mouse PAR4 differs from human PAR4, we reasoned that compound 1 may be able to block mouse PAR4. […] When infused into mice at a concentration of 5 mg/kg, compound 1 inhibited platelet accumulation during thrombus formation by >90% (FIG. 4B). Infusion of 5 mg/kg also impaired fibrin generation during thrombus formation (FIG. 4C). Thus, compound 1 blocks both cellular- and coagulation protein-mediated arms of thrombus formation. […] The compound was therefore infused every 30 minutes during the course of these experiments. The short half-life of compound 1 in vivo may be useful in scenarios in which anticoagulation is only required for a short period of time or when anticoagulation needs to be reversed quickly, such as anticoagulation prior to invasive procedures or surgery.
as §1
In the case of CC(C)CC(=O)Nc1cccc(NC(=O)c2ccccc2Br)c1 [2-bromo-N-(3-(3-methylbutanamido)phenyl)benzamide], the “impairment of platelet accumulation during thrombus formation” value is reported as over 90%.

Same assay, conditions: single infusion of 5 mg/kg, FIG. 5B
With CC(C)CC(=O)Nc1cccc(NC(=O)c2ccccc2Br)c1 [2-bromo-N-(3-(3-methylbutanamido)phenyl)benzamide] the “impairment of fibrin generation during thrombus formation” value was over 90%.

System: Gα12 signaling downstream of PAR1
Test: PAR1-mediated transmembrane resistance (TER) in MDCK cells overexpressing Gα12
Format: cell-based
Conditions: FIG. 3B
Description: as §2
For Nc1c(F)noc1F [3,5-DFAI, 3,5-difluoro aminoisoxazole], the “PAR1-mediated (SFLLRN) change in TER” value was “inhibited”.
